Test results as given in ChEMBL document CHEMBL1201862, “PubChem BioAssay data set” (2004).
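Results reflect a 48-hour exposure of cells in 96-well plates to compound at five concentrations. Here, GI50 denotes the concentration required for 50% inhibition of growth.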 Activity calls are given as the source filed them. No stated cut-off is given here; in the data, active = GI50 up to about 1.1 µM and inactive = higher.

Tests used:
Assay in all cases: growth of human tumour cells (NCI), 48 h
A498 = test system: A498
A549 = test system: A549
ACHN = test system: ACHN
CAKI-1 = test system: CAKI-1
CCRF-CEM = test system: CCRF-CEM
COLO 205 = test system: COLO 205
DU-145 = test system: DU-145
EKVX = test system: EKVX
HCC 2998 = test system: HCC 2998
HCT-116 = test system: HCT-116
HCT-15 = test system: HCT-15
HL-60 = test system: HL-60
HOP-62 = test system: HOP-62
HT-29 = test system: HT-29
Hs-578T = test system: Hs-578T
IGROV-1 = test system: IGROV-1
K562 = test system: K562
LOX IMVI = test system: LOX IMVI
M14 = test system: M14
MCF7 = test system: MCF7
MDA-MB-231 = test system: MDA-MB-231
MDA-MB-435 = test system: MDA-MB-435
MDA-N = test system: MDA-N
MOLT-4 = test system: MOLT-4
Malme-3M = test system: Malme-3M
NCI-H226 = test system: NCI-H226
NCI-H23 = test system: NCI-H23
NCI-H460 = test system: NCI-H460
NCI-H522 = test system: NCI-H522
NCI/ADR-RES = test system: NCI/ADR-RES
OVCAR-3 = test system: OVCAR-3
OVCAR-4 = test system: OVCAR-4
OVCAR-5 = test system: OVCAR-5
OVCAR-8 = test system: OVCAR-8
PC-3 = test system: PC-3
RPMI-8226 = test system: RPMI-8226
RXF 393 = test system: RXF 393
SF-268 = test system: SF-268
SF-295 = test system: SF-295
SF-539 = test system: SF-539
SK-MEL-28 = test system: SK-MEL-28
SK-MEL-2 = test system: SK-MEL-2
SK-MEL-5 = test system: SK-MEL-5
SK-OV-3 = test system: SK-OV-3
SN12C = test system: SN12C
SNB-19 = test system: SNB-19
SNB-75 = test system: SNB-75
SR = test system: SR
SW-620 = test system: SW-620
T47D = test system: T47D
TK-10 = test system: TK-10
U-251 = test system: U-251
UACC-62 = test system: UACC-62
UO-31 = test system: UO-31
786-0 = test system: 786-0
HOP-92 = test system: HOP-92
UACC-257 = test system: UACC-257

CNC(=O)OC(C)CN1c2ccccc2Sc2ccc(Cl)cc21 (configuration not stated) was tested, and the GI50 (A498) was > 10 µM (inactive), the GI50 (A549) was > 10 µM (inactive) and the GI50 (ACHN) was > 10 µM (inactive). The GI50 (CAKI-1) was > 10 µM (inactive), the GI50 (CCRF-CEM) was > 10 µM (inactive) and the GI50 (COLO 205) was > 10 µM (inactive). The GI50 (DU-145) was > 10 µM (inactive), the GI50 (EKVX) was > 10 µM (inactive) and the GI50 (HCC 2998) was > 10 µM (inactive). For the same compound, the GI50 (HCT-116) was > 10 µM (inactive), the GI50 (HCT-15) was over 10 µM and the GI50 (HL-60) was > 10 µM (inactive). For the same compound, the GI50 (HOP-62) was > 10 µM (inactive), the GI50 (HT-29) was > 10 µM (inactive) and the GI50 (Hs-578T) was > 10 µM (inactive). For the same compound, the GI50 (IGROV-1) was > 10 µM (inactive), the GI50 (K562) was > 10 µM (inactive) and the GI50 (LOX IMVI) was > 10 µM (inactive). For the same compound, the GI50 (M14) was > 10 µM (inactive), the GI50 (MCF7) was > 10 µM (inactive) and the GI50 (MDA-MB-231) was > 10 µM (inactive). For the same compound, the GI50 (MDA-MB-435) was > 10 µM (inactive), the GI50 (MDA-N) was > 10 µM (inactive) and the GI50 (MOLT-4) was > 10 µM (inactive). For the same compound, the GI50 (Malme-3M) was > 10 µM (inactive), the GI50 (NCI-H226) was > 10 µM (inactive) and the GI50 (NCI-H23) was > 10 µM (inactive). The GI50 (NCI-H460) was > 10 µM (inactive), the GI50 (NCI-H522) was > 10 µM (inactive) and the GI50 (NCI/ADR-RES) was > 10 µM (inactive). For the same compound, the GI50 (OVCAR-3) was > 10 µM (inactive), the GI50 (OVCAR-4) was > 10 µM (inactive) and the GI50 (OVCAR-5) was > 10 µM (inactive). For the same compound, the GI50 (OVCAR-8) was > 10 µM (inactive), the GI50 (PC-3) was > 10 µM (inactive) and the GI50 (RPMI-8226) was > 10 µM (inactive). The GI50 (RXF 393) was > 10 µM (inactive), the GI50 (SF-268) was > 10 µM (inactive) and the GI50 (SF-295) was > 10 µM (inactive). The GI50 (SF-539) was > 10 µM (inactive), the GI50 (SK-MEL-28) was > 10 µM (inactive) and the GI50 (SK-MEL-2) was > 10 µM (inactive). For the same compound, the GI50 (SK-MEL-5) was > 10 µM (inactive), the GI50 (SK-OV-3) was > 10 µM (inactive) and the GI50 (SN12C) was > 10 µM (inactive). The GI50 (SNB-19) was > 10 µM (inactive), the GI50 (SNB-75) was > 10 µM (inactive) and the GI50 (SR) was > 10 µM (inactive). For the same compound, the GI50 (SW-620) was > 10 µM (inactive), the GI50 (T47D) was > 10 µM (inactive) and the GI50 (TK-10) was > 10 µM (inactive). For the same compound, the GI50 (U-251) was > 10 µM (inactive), the GI50 (UACC-62) was > 10 µM (inactive) and the GI50 (UO-31) was > 10 µM (inactive).
For CC[C@@]1(O)C(=O)OCc2c1cc1n(c2=O)Cc2c-1nc1ccccc1c2/C=N/c1ccccc1N[C@@H]1c2cc3c(cc2[C@@H](c2cc(OC)c(O)c(OC)c2)[C@H]2C(=O)OC[C@@H]21)OCO3, the GI50 (786-0) was 0.0213 µM (active), the GI50 (A549) was 0.0411 µM (active) and the GI50 (ACHN) was < 0.0145 µM (active). The GI50 (CAKI-1) was 0.0225 µM (active), the GI50 (HCT-116) was 0.0469 µM (active) and the GI50 (HOP-62) was < 0.0189 µM (active). The GI50 (HOP-92) was 0.224 µM (active), the GI50 (LOX IMVI) was 0.0138 µM (active) and the GI50 (M14) was 0.04 µM (active). For the same compound, the GI50 (MCF7) was < 0.0115 µM (active), the GI50 (MOLT-4) was < 0.01 µM (active) and the GI50 (Malme-3M) was 0.394 µM (active). The GI50 (NCI-H226) was 0.0702 µM (active), the GI50 (NCI-H460) was < 0.01 µM (active) and the GI50 (PC-3) was 0.284 µM (active). For the same compound, the GI50 (RPMI-8226) was 0.27 µM (active), the GI50 (SF-268) was 0.0285 µM (active) and the GI50 (SK-MEL-5) was 0.0955 µM (active). The GI50 (SNB-75) was 0.051 µM (active), the GI50 (SW-620) was 0.132 µM (active) and the GI50 (T47D) was 0.0236 µM (active). For the same compound, the GI50 (U-251) was 0.296 µM (active), the GI50 (UACC-257) was 0.412 µM (active) and the GI50 (UACC-62) was 0.0264 µM (active).
For N=C(N)c1ccc(OCCCCCOc2ccc(C(=N)N)cc2)cc1 [PENTAMIDINE], the GI50 (786-0) was 13.7 µM (inactive), the GI50 (A549) was 11 µM (inactive) and the GI50 (ACHN) was 23.6 µM (inactive). The GI50 (CAKI-1) was 57 µM (inactive), the GI50 (DU-145) was 13.2 µM (inactive) and the GI50 (EKVX) was 19.1 µM (inactive). For the same compound, the GI50 (HCC 2998) was 12.2 µM (inactive), the GI50 (HCT-116) was 22.4 µM (inactive) and the GI50 (HCT-15) was 24.8 µM. For the same compound, the GI50 (HL-60) was 19.3 µM (inactive), the GI50 (HOP-62) was 14.9 µM (inactive) and the GI50 (HOP-92) was 28.5 µM (inactive). For the same compound, the GI50 (Hs-578T) was 14.9 µM (inactive), the GI50 (K562) was 3.45 µM (inactive) and the GI50 (LOX IMVI) was 16.1 µM (inactive). The GI50 (M14) was 15.5 µM (inactive), the GI50 (MCF7) was 9.55 µM (inactive) and the GI50 (MDA-MB-231) was 16.7 µM (inactive). For the same compound, the GI50 (MDA-MB-435) was 16.6 µM (inactive), the GI50 (MDA-N) was 15.6 µM (inactive) and the GI50 (NCI-H23) was 10.4 µM (inactive). For the same compound, the GI50 (NCI-H460) was 2.98 µM (inactive), the GI50 (NCI/ADR-RES) was 71.6 µM (inactive) and the GI50 (OVCAR-3) was 14.3 µM (inactive). The GI50 (OVCAR-4) was 10.9 µM (inactive), the GI50 (OVCAR-5) was 21 µM (inactive) and the GI50 (OVCAR-8) was 13.7 µM (inactive). The GI50 (PC-3) was 18.5 µM (inactive), the GI50 (RXF 393) was 16.7 µM (inactive) and the GI50 (SF-268) was 17.2 µM (inactive). For the same compound, the GI50 (SF-539) was 12.6 µM (inactive), the GI50 (SK-MEL-28) was 14.7 µM (inactive) and the GI50 (SK-MEL-2) was 9.06 µM (inactive). The GI50 (SN12C) was 6.55 µM (inactive), the GI50 (SNB-19) was 10.7 µM (inactive) and the GI50 (T47D) was 7.76 µM (inactive). The GI50 (TK-10) was 18.9 µM (inactive), the GI50 (U-251) was 8.26 µM (inactive) and the GI50 (UACC-62) was 12.2 µM (inactive).
